According to ChEMBL document CHEMBL1144461, “Targeted drug-carrying bacteriophages as antibacterial nanomedicines” (Antimicrob Agents Chemother, 2007):
Calls of active or inactive are those of the source.

Columns and labels:
Type in all cases: functional, organism-based
[1] = tested on: Escherichia coli; assay: Antibacterial activity against Escherichia coli O78
[2] = tested on: Staphylococcus aureus; assay: Antibacterial activity against Staphylococcus aureus COL
[3] = tested on: Streptococcus pyogenes; assay: Antibacterial activity against Streptococcus pyogenes

Measured: Activity

O=C(N[C@H](CO)[C@H](O)c1ccc([N+](=O)[O-])cc1)C(Cl)Cl
active: all assays above
